Measurements taken from ChEMBL document CHEMBL6109156, “Discovery of Dual PD-L1/HDAC3 Inhibitors for Tumor Immunotherapy” (J Med Chem, 2025).
Activity calls are given as the source filed them. The calls are words filed in the database; no cut-off is given here.

Tests used:
[1] = target: T1, Programmed cell death protein 1/Programmed cell death 1 ligand 1 (Homo sapiens, UniProt Q9NZQ7); experiment: Inhibition of PD-1/PD-L1 (unknown origin) interaction assessed as inhibition rate at 1 uM by HTRF assay relative to control; type: protein-complex assay
T1 sequence (Q15116 whole entry): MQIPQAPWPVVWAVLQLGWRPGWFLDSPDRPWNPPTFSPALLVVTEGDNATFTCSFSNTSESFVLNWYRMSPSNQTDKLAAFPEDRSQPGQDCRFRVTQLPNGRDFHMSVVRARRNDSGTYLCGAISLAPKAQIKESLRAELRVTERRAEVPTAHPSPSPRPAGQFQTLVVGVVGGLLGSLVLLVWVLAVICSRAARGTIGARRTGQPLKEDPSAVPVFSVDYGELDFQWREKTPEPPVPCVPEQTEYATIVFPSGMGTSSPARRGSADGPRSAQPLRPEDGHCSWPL
T1 sequence (Q9NZQ7 whole entry): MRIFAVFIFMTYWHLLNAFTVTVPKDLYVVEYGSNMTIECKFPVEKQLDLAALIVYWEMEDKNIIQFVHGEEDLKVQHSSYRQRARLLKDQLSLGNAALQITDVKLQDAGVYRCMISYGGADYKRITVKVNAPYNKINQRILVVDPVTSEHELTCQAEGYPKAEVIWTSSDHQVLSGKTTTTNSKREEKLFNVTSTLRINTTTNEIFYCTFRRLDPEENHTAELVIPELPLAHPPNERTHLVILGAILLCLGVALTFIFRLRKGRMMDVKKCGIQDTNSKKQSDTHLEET

[2] = target: T1, Programmed cell death protein 1/Programmed cell death 1 ligand 1; experiment: Inhibition of PD-1/PD-L1 (unknown origin) interaction assessed as inhibition rate by HTRF assay; type: protein-complex assay
Histone deacetylase 3 = Histone deacetylase 3 (Homo sapiens, UniProt O15379); experiment: Inhibition of human recombinant HDAC3 using Ac-Leu-Gly-Lys (Ac)-AMC as substrate preincubated for 10 mins followed by substrate addition and measured after 45 mins by TECAN microtiter plate reader analysis
Sequence of Histone deacetylase 3 (O15379 whole entry): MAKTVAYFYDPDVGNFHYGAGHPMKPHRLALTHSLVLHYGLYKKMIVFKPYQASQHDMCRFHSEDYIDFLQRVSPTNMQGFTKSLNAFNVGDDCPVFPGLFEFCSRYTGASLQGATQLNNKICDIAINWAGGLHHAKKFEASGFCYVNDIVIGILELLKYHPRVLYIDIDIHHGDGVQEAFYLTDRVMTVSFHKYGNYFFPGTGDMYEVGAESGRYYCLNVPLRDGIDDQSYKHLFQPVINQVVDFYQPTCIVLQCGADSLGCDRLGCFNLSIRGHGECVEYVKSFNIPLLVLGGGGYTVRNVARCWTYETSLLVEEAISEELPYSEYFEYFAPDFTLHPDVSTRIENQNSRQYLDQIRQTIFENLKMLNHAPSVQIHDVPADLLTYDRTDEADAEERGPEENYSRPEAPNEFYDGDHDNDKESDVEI

B16-F10 [3] = experiment: Antiproliferative activity against mouse B16-F10 cells assessed as cell growth inhibition incubated for 48 hrs by MTT assay; type: functional, cell-based; details: B16-F10, 48 h
A-375 = experiment: Antiproliferative activity against human A-375 cells assessed as cell growth inhibition incubated for 48 hrs by MTT assay; type: functional, cell-based; details: A-375, 48 h
HepG2 = experiment: Antiproliferative activity against human HepG2 cells assessed as cell growth inhibition incubated for 48 hrs by MTT assay; type: functional, cell-based; details: HepG2, 48 h
4T1 = experiment: Antiproliferative activity against mouse 4T1 cells assessed as cell growth inhibition incubated for 48 hrs by MTT assay; type: functional, cell-based; details: 4T1, 48 h
MDA-MB-231 = experiment: Antiproliferative activity against human MDA-MB-231 cells assessed as cell growth inhibition incubated for 48 hrs by MTT assay; type: functional, cell-based; details: MDA-MB-231, 48 h
HCT-116 = experiment: Antiproliferative activity against human HCT-116 cells assessed as cell growth inhibition incubated for 48 hrs by MTT assay; type: functional, cell-based; details: HCT-116, 48 h
[4] = target: T2, Histone deacetylase 3 (Mus musculus) (UniProt O88895); experiment: Inhibition of HDAC3 in mouse B16-F10 cells assessed as upregulation of Ac-H3 level at 3 uM incubated for 24 hrs by Western blotting analysis; type: cell-based
T2 sequence (whole entry): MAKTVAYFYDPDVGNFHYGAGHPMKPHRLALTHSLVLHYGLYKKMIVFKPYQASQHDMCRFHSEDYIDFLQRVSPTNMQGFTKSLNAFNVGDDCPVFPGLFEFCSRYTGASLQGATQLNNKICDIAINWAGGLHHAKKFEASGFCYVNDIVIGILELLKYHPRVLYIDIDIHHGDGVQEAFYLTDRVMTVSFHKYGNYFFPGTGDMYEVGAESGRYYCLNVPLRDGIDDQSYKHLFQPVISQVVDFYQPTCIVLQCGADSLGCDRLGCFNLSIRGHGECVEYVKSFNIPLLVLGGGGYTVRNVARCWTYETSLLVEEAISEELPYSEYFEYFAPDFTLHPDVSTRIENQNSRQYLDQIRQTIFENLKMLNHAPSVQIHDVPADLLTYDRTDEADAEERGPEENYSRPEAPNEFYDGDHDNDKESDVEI

B16-F10 [5] = experiment: Induction of apoptosis in mouse B16-F10 cells assessed as viable cells at 4 uM incubated for 48 hrs by Annexin V-FITC/PI staining based flow cytometry analysis (reference value: 92.3%); type: functional; details: read-out: Activity
B16-F10 [6] = experiment: Induction of apoptosis in mouse B16-F10 cells assessed as early apoptotic cells at 4 uM incubated for 48 hrs by Annexin V-FITC/PI staining based flow cytometry analysis (reference value: 0.45 %); type: functional
B16-F10 [7] = experiment: Induction of apoptosis in mouse B16-F10 cells assessed as late apoptotic cells at 4 uM incubated for 48 hrs by Annexin V-FITC/PI staining based flow cytometry analysis (reference value: 5.02 %); type: functional
B16-F10 [8] = experiment: Induction of apoptosis in mouse B16-F10 cells assessed as necrotic cells at 4 uM incubated for 48 hrs by Annexin V-FITC/PI staining based flow cytometry analysis (reference value: 2.24%); type: functional
B16-F10 [9] = experiment: Induction of cell cycle arrest in mouse B16-F10 cells assessed as accumulation of cells at G0/G1 phase at 4 uM incubated for 48 hrs by PI staining based flow cytometry analysis (reference value: 70.09%); type: functional
B16-F10 [10] = experiment: Induction of cell cycle arrest in mouse B16-F10 cells assessed as accumulation of cells at G2/M phase at 4 uM incubated for 48 hrs by PI staining based flow cytometry analysis (reference value: 5.87%); type: functional
B16-F10 [11] = experiment: Induction of cell cycle arrest in mouse B16-F10 cells assessed as accumulation of cells at S phase at 4 uM incubated for 48 hrs by PI staining based flow cytometry analysis (reference value: 24.04%); type: functional
B16-F10 [12] = experiment: Antitumor activity against mouse B16-F10 cells implanted in C57BL/6J mouse assessed as tumor growth inhibition at 20 mg/kg, ip administered once daily for 9 days; type: functional; details: B16-F10, 216 h, time 9 day, read-out: TGI
B16-F10 [13] = experiment: Antitumor activity against mouse B16-F10 cells implanted in C57BL/6J mouse assessed as tumor growth inhibition at 20 mg/kg, ip administered once daily for 9 days in presence of MS-275; type: functional; details: B16-F10, 216 h, time 9 day, read-out: TGI
[14] = Toxicity in C57BL/6J mouse implanted with mouse B16-F10 cells assessed as body weight loss at 20 mg/kg, ip administered once daily for 9 days; type: organism-based; details: in vivo, 216 h, time 9 day
[15] = Toxicity in C57BL/6J mouse implanted with mouse B16-F10 cells assessed as body weight loss at 20 mg/kg, ip administered once daily for 5 days in presence of MS-275; type: organism-based; details: in vivo, 120 h, time 5 day
[16] = Toxicity in C57BL/6J mouse implanted with mouse B16-F10 cells assessed as animal death at 20 mg/kg, ip administered once daily for 5 days in presence of MS-275; type: organism-based; details: in vivo, 120 h, time 5 day
B16-F10 [17] = experiment: Immunomodulatory activity in mouse B16-F10 cells implanted in C57BL/6J mouse assessed as percentage of CD3 positive CD8 positive cells in tumor at 20 mg/kg, ip administered once daily for 9 days by flow cytometric analysis (reference value: 0.44 %); type: functional; details: time 9 day
B16-F10 [18] = experiment: Immunomodulatory activity in mouse B16-F10 cells implanted in C57BL/6J mouse assessed as percentage of CD3 positive CD8 positive cells in tumor at 10 mg/kg, ip administered once daily for 9 days in presence of MS-275 by flow cytometric analysis (reference value: 0.44 %); type: functional; details: time 9 day
B16-F10 [19] = experiment: Immunomodulatory activity in mouse B16-F10 cells implanted in C57BL/6J mouse assessed as percentage of CD3 positive CD4 positive cells in tumor at 20 mg/kg, ip administered once daily for 9 days by flow cytometric analysis (reference value: 0.20 %); type: functional; details: time 9 day
B16-F10 [20] = experiment: Immunomodulatory activity in mouse B16-F10 cells implanted in C57BL/6J mouse assessed as percentage of CD3 positive CD4 positive cells in tumor at 10 mg/kg, ip administered once daily for 9 days in presence of MS-275 by flow cytometric analysis (reference value: 0.20 %); type: functional; details: time 9 day

Structure (SMILES): Cc1c(COc2cc(OCc3cccc(C#N)c3)c(CNC(C)(C)C(=O)O)cc2Cl)cccc1-c1ccccc1
- IC50 [1]: 0.0683 µM
- IC50 [2]: 0.0683 µM
- IC50 (Histone deacetylase 3): > 10 µM
- IC50 (B16-F10 [3]): > 50 µM
- IC50 (A-375): > 50 µM
- IC50 (HepG2): > 50 µM
- IC50 (4T1): > 50 µM
- IC50 (MDA-MB-231): > 50 µM
- IC50 (HCT-116): > 50 µM
- inhibition [4]: inactive
- viability at 4 µM (B16-F10 [5]): 93.6%
- Activity (B16-F10 [6]): 0.47%
- Activity (B16-F10 [7]): 3.95%
- Activity (B16-F10 [8]): 1.96%
- Activity (B16-F10 [9]): 70.67%
- Activity (B16-F10 [10]): 5.05%
- Activity (B16-F10 [11]): 24.28%
- inhibition in vivo at 20 mg/kg (B16-F10 [12]): 30.8%
- inhibition in vivo at 20 mg/kg (B16-F10 [13]): 37%
- Activity [14]: Non-toxic
- Activity [15]: Toxic
- Activity [16]: Toxic
- Activity (B16-F10 [17]): 2.68%
- Activity (B16-F10 [18]): 3.34%
- Activity (B16-F10 [19]): 0.78%
- Activity (B16-F10 [20]): 1.89%
